Measured values from patent US10550163B2 (The Regents of the University of California, priority 2014, dated 2020).

Key:
I/R-injured mouse hearts = experiment: Langendorff ischemia/reperfusion injury of isolated mouse hearts, post-conditioning (peptide at reperfusion); infarct size by TTC; set-up: species or system mouse (C57BL/6J); conditions: isolated C57BL6 hearts, peptide 1.47 nmol/L during 60 min reperfusion after 20 min ischemia, Control I/R 37.6±1.3%, Mean±SEM
Procedure: Hearts of C57BL6 mice were freshly isolated and subject to ischemia reperfusion (I/R) injury using a Langendorff perfusion system. Hearts were pre-perfused with Krebs-Henseleit buffer for 40 minutes, and then I/R injury was consistently produced by subjecting the hearts to 20 minutes of normo-thermic ischemia, followed by reperfusion for 60 minutes with or without peptide fragment V1, V2, or V3 at the same molar concentration of 1.47 nmol/L. Sections of hearts were stained with 2,3,5-TTC and infarct area calculated as % of risk area.
Post-conditioning I/R experiments were performed as illustrated in FIG. 4A. Different peptide fragments V1-9aa, V2-10aa, V3-16aa, and V3-11aa were used at the same molar concentration of 1.47 nmol/L. Sections of hearts were stained with 2,3,5-TTC and infarct area calculated as % of risk area.
Male C57BL/6J mice (8-12 weeks old) were obtained from the Charles River Laboratories (Wilmington, Mass., USA). After anesthetized with intraperitoneal pentobarbitone (60 mg/kg), mouse hearts were harvested immediately and the aortas were cannulated with a 20-gauge stainless steel blunt needle and transferred to the Langendorff rig and perfused retrograde instantly with modified Krebs-Henseleit buffer (KHB) […] as previously described. See Bouhidel et al. Front Biosci (Landmark Ed) 2014; 19:566-570, and Zhang et al., J Mol Cell Cardiol. 2010; 48:1060-1070. […] Hearts were then harvested for analyses of infarct size. For post-conditioning treatment with peptide fragments, hearts underwent 40 minutes of KHB perfusion, 20 minutes of global ischemia, and a 60 minute reperfusion with different peptide fragments.
At the end of I/R protocol, hearts were sliced perpendicular to the long-axis of the heart at 1 mm intervals and stained with 1% triphenyl tetrazolium chloride (TTC) in PBS for 10 minutes at room temperature. After washing with PBS once, sections of the hearts will be fixed in 10% formalin overnight. […] Infarct size is expressed as an infarct-to-risk zone ratio (the risk zone is the whole ventricular volume in this global ischemic model).

[1] = tested on: endothelial cell NO production; experiment: Endothelial cell nitric oxide production by electron spin resonance (ESR); format: cell-based, bovine; conditions: endothelial cells, 37° C., 60 minutes, Mean±SEM
Procedure: (§1) Confluent endothelial cells were incubated with different peptide fragments V1-9aa, V2-10aa, and V3-11aa at the same molar concentration of 1.47 nmol/L at 37° C. for 60 minutes in modified Krebs/HEPEs buffer containing the NO-specific spin trap Fe^2+(DETC)2. Cells were then gently collected for analysis of NO production by using electron spin resonance (ESR).
as §1, with “different combination of” for “different”, “V1-9aa alone, V1-9aa+V2-10aa (1:1), V1-9aa+V3-11aa (1:1),” for “V1-9aa, V2-10aa,”, “V2-10aa+V3-11aa (1:1)” for “V3-11aa”, “same total” for “same”
To further identify the synergistic effects peptide fragments according to the present invention, endothelial cells were treated with different combinations of peptide fragments. The treatment groups were: V1-9aa+V2-10aa group, V1-9aa+V3-11aa group, and V2-10aa+V3-11aa group. The amount of each peptide fragment was 50% of the total amount by molar concentration (or equal volume at the same molar concentration) of peptide fragments in the composition, and the final molar concentration was 1.47 nmol/L. Control group (no peptide treatment) and V1-9aa group (1.47 nmol/L) were used to compare with the combination groups. The results, shown in FIG. 7, indicate that the V1-9aa+V2-10aa group produced more NO than the V1-9aa group (V1-9aa+V2-10aa: 1.90±0.50 fold vs. V1-9aa: 1.42±0.18 fold, p<0.05).
Bovine aortic endothelial cells (BAECs, Cell Systems, Kirkland, Wash., USA) were cultured in media 199 containing 10% fetal bovine serum (FBS) as previously described. See Chalupsky & Cai, PNAS USA 2005; 102:9056-9061; and Nguyen & Cai, PNAS USA 2006; 103:6530-6535.

[2] = single peptide 1.47 nmol/L, ESR (FIG. 6)

| Substance | infarct size (infarct area as % of risk area) (I/R-injured mouse hearts) [%] | NO production, fold vs. control ([1]; combination experiment (FIG. 7), 1:1, total 1.47 nmol/L, ESR) [fold] | NO production, fold vs. control [1, 2] [fold] |
| --- | --- | --- | --- |
| V1-9aa: SEQ ID NO: 4, residues 304-312 of human netrin-1: CDCRHNTAG (listed as Homo sapiens) | 16.8±2.2 | 1.42±0.18 | 1.50±0.09 |
| V2-10aa: SEQ ID NO: 5, residues 368-377 of human netrin-1: CLNCRHNTAG (listed as Homo sapiens) | 18.6±1.7 |  | 1.44±0.08 |
| V3-11aa: SEQ ID NO: 6, residues 423-433 of human netrin-1: CPCKDGVTGIT (listed as Homo sapiens) | 16.7±3.0 |  | 1.45±0.11 |
